Reference: US20090291999A1, “Agent Exhibiting a Neurotropic, Neuromodulator, Cerebrovascular and Anti-Stroke Activity” (AKHAPKINA, Valentina Ivanovna, priority 2006, published 2009)
Marks after values point to notes of the source that are not given here.

Key:
[1] = system: rats with hemorrhagic stroke (intracerebral post-traumatic hematoma); test: Hemorrhagic stroke model: neurologic deficit on McGrow's scale; conditions: HS rats, 100 mg/Kg internally; 1 day after operation
Procedure: (§1) Experiments have been conducted on white outbred male rats having weights from 200 to 250 grams. The rats have been held in vivarium conditions with free access to meals and water, under the natural change of days and nights. For the purpose of generating hemorrhagic stroke (HS) in rats narcotized with chloral hydrate (400 mg/Kg) stereotaxic craniotomy was conducted and then brain tissue in the capsula interna area was destructed with a mandarin knife, and blood (0.02 to 0.03 mL) taken under a rat tongue was injected into the place of destruction. Thus, local autohemorrhagic bilateral stroke was generated in the capsula interna area (diameter 2 mm, depth 3 mm) without damaging the above-located brain formations and neocortex. Falsely operated animals and animals with HS fed with a saline were used as the control animals. Intragastric administration of Phenotropil at a dose of 100 mg/Kg was performed with the use of a special tube in 5 hours after the operation and then daily for 7 days at the time of the day±3 minutes.
(§2) The Phenotropil influence was evaluated for survivability of the animals, for the neurologic deficit level on the McGrow stroke-index scale in the modification of I. V. Gannushkina (1977) and in the Rotarod test, for muscular tonus maintenance in the test of chinning up on a horizontal bar, for orientation and exploration behavior in the open-field test. Study of cognitive functions was conducted on a standard unit for conditioned reflex of passive avoidance (CRPA). A test for CRPA repetition (for maintenance of a memory trail) was conducted in 24 hours after training as well as on the 3rd, 7th and 14th days after the operation. The latent time of the first entering in a dark chamber was registered when the burrow reflex maintenance was evaluated.

[2] = system: rats with hemorrhagic stroke (intracerebral post-traumatic hematoma); test: Hemorrhagic stroke model: conditioned reflex of passive avoidance (CRPA); conditions: for Latent time of entering into a dark chamber / Number of rats which did not entered a dark chamber: HS rats, 100 mg/Kg
Procedure: as §1, §2

[3] = system: rats with hemorrhagic stroke (intracerebral post-traumatic hematoma); test: Hemorrhagic stroke model: survivability of animals
Procedure: (§3) Experiments have been conducted on white outbred male rats having weights from 200 to 250 grams. The rats have been held in vivarium conditions with free access to meals and water, under the natural change of days and nights. For the purpose of generating hemorrhagic stroke (HS) in rats narcotized with chloral hydrate (400 mg/Kg) stereotaxic craniotomy was conducted and then brain tissue in the capsula interna area was destructed with a mandarin knife, and blood (0.02 to 0.03 mL) taken under a rat tongue was injected into the place of destruction. Thus, local autohemorrhagic bilateral stroke was generated in the capsula interna area (diameter 2 mm, depth 3 mm) without damaging the above-located brain formations and neocortex. Falsely operated animals and animals with HS fed with a saline were used as the control animals. […]
The Phenotropil influence was evaluated for survivability of the animals, for the neurologic deficit level on the McGrow stroke-index scale in the modification of I. V. Gannushkina (1977) and in the Rotarod test, for muscular tonus maintenance in the test of chinning up on a horizontal bar, for orientation and exploration behavior in the open-field test. […] The latent time of the first entering in a dark chamber was registered when the burrow reflex maintenance was evaluated.

[4] = system: rats with hemorrhagic stroke (intracerebral post-traumatic hematoma); test: Hemorrhagic stroke model: burrow reflex; conditions: HS rats, one-time administration; 1 day after operation
Procedure: as §3
The Phenotropil influence was evaluated for survivability of the animals, for the neurologic deficit level on the McGrow stroke-index scale in the modification of I. V. Gannushkina (1977) and in the Rotarod test, for muscular tonus maintenance in the test of chinning up on a horizontal bar, for orientation and exploration behavior in the open-field test. […] The latent time of the first entering in a dark chamber was registered when the burrow reflex maintenance was evaluated. […]

Toxicity (LD30) = conditions: in vivo
[5] = Metabolism and excretion in the organism; conditions: in vivo
[6] = system: rats with hemorrhagic stroke (intracerebral post-traumatic hematoma); test: Hemorrhagic stroke model: open-field orientation-and-exploratory behavior; conditions: for Exploration of holes / Horizontal motion activity / Total index / Vertical motion activity: HS + Phenotropil
Procedure: as §1, §2

[7] = repetition of the CRPA in 3 days
[8] = repetition of the CRPA in 7 days
[9] = repetition of the CRPA in 14 days

In the case of `NC(=O)CN1CC(c2ccccc2)CC1=O` (centres unmarked) [Phenotropil, N-carbomoyl-methyl-4-phenyl-2-pyrrolidon], the “Number of animals with flabbiness, slowness of motions” value [1] is reported as 50%, the “Number of animals with paresis of 1-4 limbs” value [1] is reported as 30% and the “Number of animals with weakness of limbs” value [1] is reported as 40* %. The “Increase of the latent time of entering the dark chamber in comparison to the HS-group” value ([2]; 100 mg/Kg one-time administration 5 hours after operation, CRPA one day after training) was 48%, the “Increase of the number of animals with maintained memory in comparison to the HS-group” value ([2]; 100 mg/Kg one-time administration 5 hours after operation, after one day) was 60% and the “Latent time of entering into a dark chamber” value ([2]; repetition of the CRPA in 24 hours after training) was 101.1 ± 24.2 s. For the same compound, the “Number of rats which did not entered a dark chamber” value ([2]; repetition of the CRPA in 24 hours after training, 100 mg/kg) was 40%, the “Latent time of entering into a dark chamber” value [2, 7] was 98.3 ± 18.7 s and the “Number of rats which did not entered a dark chamber” value [2, 7] was 40** %. The “Latent time of entering into a dark chamber” value [2, 8] was 75.2 ± 24.1 s, the “Number of rats which did not entered a dark chamber” value [2, 8] was 30** % and the “Latent time of entering into a dark chamber” value [2, 9] was 83.2 ± 26.7 s. The “Number of rats which did not entered a dark chamber” value [2, 9] was 40** %, the “Effect on death of the animals” value ([3]; 100 mg/Kg once a day for 7 days, 14 days of observation) was “completely prevented death of the animals” and the “Cases in which death of animals was prevented” value ([3]; hemorrhagic stroke, 100 mg/Kg) was 100%. The “Latent time of entering into a dark chamber during training in the burrow reflex” value [4] was 30.6 ± 8.8, the LD30 (Toxicity (LD30)) was 800 mg/kg and the “Metabolism in the organism” value [5] was “not metabolized in the organism and goes out of it in the unchanged form”. It also gave an Exploration of holes ([6]; 1st day after operation) of 1.3 ± 0.5, a Horizontal motion activity ([6]; 1st day after operation) of 8.8 ± 3.5 and a Total index ([6]; 1st day after operation) of 14.5 ± 5.5. The Vertical motion activity ([6]; 1st day after operation) was 4.4 ± 2.1, the Exploration of holes ([6]; 3rd day after operation) was 1.9 ± 0.7 and the Horizontal motion activity ([6]; 3rd day after operation) was 15.2 ± 5.4. For the same compound, the Total index ([6]; 3rd day after operation) was 21.6 ± 6.1, the Vertical motion activity ([6]; 3rd day after operation) was 4.5 ± 1.5 and the Exploration of holes ([6]; 7th day after operation) was 4.6 ± 1.3. For the same compound, the Horizontal motion activity ([6]; 7th day after operation) was 20.9 ± 4.1, the Total index ([6]; 7th day after operation) was 36.4 ± 5.6 and the Vertical motion activity ([6]; 7th day after operation) was 10.9 ± 3.2. For the same compound, the Exploration of holes ([6]; 14th day after operation) was 3.0 ± 0.7, the Horizontal motion activity ([6]; 14th day after operation) was 12.2 ± 2.8 and the Total index ([6]; 14th day after operation) was 22.1 ± 3.5. For the same compound, the Vertical motion activity ([6]; 14th day after operation) was 6.9 ± 1.9 and the “Increase of total index of motion behavior compared to rats of the HS group” value ([6]; registered in 7 days) was 2.7 times.
